Values after ≈ are worked out from the molar mass of the structure shown. Where two headings read alike, the source gives them in different places. Marks after values point to notes of the source that are not given here.
Experiments:
[1] = WST-8 cell viability assay after PDT, MSTO-211H; type: cell-based, human; settings: human, MSTO-211H cells, dark; for viability at 48 h, 5 μg/mL: read-out: cell viability relative to untreated control
Protocol: (§1) Porphyrin PS stock solutions 4, 5, and 6 (Scheme 1) were prepared by dissolving a 5 mg aliquot in 500 μL of 1 M NaOH. This was added to 9.5 mL of complete media to prepare a 500 μg/mL stock solution. Stock solutions were filter sterilized using a Millipore PES membrane filter (Merck, Watford, UK). Working solutions were prepared immediately before PDT experiments and consisted of six treatments: an untreated control, vehicle control, and four porphyrin concentrations (5, 10, 15, and 20 μg/mL).
(§2) Cells were detached using a trypsin/EDTA solution (Lonza). Trypan blue (0.4% v/v) exclusion was used to count viable cells before seeded into 96-well plates (Nunc) at a density of 5 × 10^3 cells per well in 200 μL of complete RPMI. Cell culture plates were seeded approximately 24 h before PDT. Media was aspirated and replaced with equal volumes of the respective PS treatment. For the purpose of background subtraction, PS treatments were also added to wells without cells. Following 3 h of incubation (37 °C, 5% CO2:95% air), plates were irradiated for 15 min on a 15 W light box (UVP, Cambridge, UK). Experiments performed parallel to dark-treated control plates.
(§3) Cell viability was assessed by the colorimetric WST-8 assay. […] The plates were incubated for 3 h (37 °C, 5% CO2:95% air) and then analyzed at 450 nm using a Clariostar Plate Reader (BMG Labtech, Ortenberg, Germany). Corrected absorbance was calculated in each case by subtraction of the media only controls. Finally, percentage cell viability was expressed relative to untreated control values.

MSTO-211H cells [2] = assay: WST-8 cell viability assay after PDT, MSTO-211H; type: cell-based, human; settings: Homo sapiens, 5 μg/mL, light, 48 h, read-out: cell viability relative to untreated control
Protocol: as §1, §2, §3

[3] = WST-8 cell viability assay after PDT, NCI-H28; type: cell-based, human; settings: human, NCI-H28 cells, NCI-H28, 5 μg/mL, dark, read-out: cell viability relative to untreated control
Protocol: as §1
as §2, with “Experiments performed parallel to dark-treated control plates.” left out
as §3, with “Finally, percentage cell viability was expressed relative to untreated control values.” left out

NCI-H28 cells [4] = assay: WST-8 cell viability assay after PDT, NCI-H28; type: cell-based, human; settings: Homo sapiens; NCI-H28, 5 μg/mL, light, 48 h; read-out: cell viability relative to untreated control
Protocol: as §1
as §2, with “Experiments performed parallel to dark-treated control plates.” left out
as §3, with “Finally, percentage cell viability was expressed relative to untreated control values.” left out

[5] = WST-8 cell viability assay after PDT, Met-5a; type: cell-based; settings: human, Met-5a cells, light, read-out: cell viability relative to untreated control
Protocol: as §1, §2
Cell viability was assessed by the colorimetric WST-8 assay. Following 24 h of incubation (37 °C, 5% CO2:95% air), 10 μL of WST-8 was added to each cell-containing well of the 96-well plates. The plates were incubated for 3 h (37 °C, 5% CO2:95% air) and then analyzed at 450 nm using a Clariostar Plate Reader (BMG Labtech, Ortenberg, Germany). Corrected absorbance was calculated in each case by subtraction of the media only controls. Finally, percentage cell viability was expressed relative to untreated control values.

[6] = Annexin V-FITC/PI cell death analysis by flow cytometry, MSTO-211H; type: cell-based, human; settings: human, MSTO-211H cells, dark, 48 h, read-out: viable cells
Protocol: (§4) Cells were harvested in accordance with methods previously described and seeded into 24-well plates (Nunc, London, UK) at a density of 2 × 10^5 cells per well in 1000 μL of complete RPMI; the culture plates were seeded approximately 24 h before PDT. Cell treatment and irradiation was performed in accordance with methods previously described.
(§5) Annexin V-FITC/PI staining and cell death analysis was performed at both 24- and 48 h time points following PDT (representative flow cytometry dot-plots from Annexin V-FITC/PI-stained cells in Supplementary Materials-Figure S2). Non-adherent cells were harvested through the removal of culture medium and adherent monolayers were trypsinized and returned to the removed media. Harvested cells were removed from media via centrifugation (5 min, 400× g) (VWR Mega Star, Leicestershire, UK) and resuspended in Annexin V Binding Buffer. Following a second centrifugation, Annexin V Binding Buffer was discarded, and cell pellets were resuspended in the residual volume. Cells were stained with Annexin V-FITC (5 μL) and PI (10 μL) and incubated at room temperature for 15 min protected from light. 200 µL of Annexin V Binding Buffer was added prior to immediate analysis using a BD FACSCalibur (BD Biosciences, Wokingham, UK) and data from 10,000 events was collected. Flow cytometry results were analyzed using FlowJo™ v10.8 Software (BD Life Sciences). Quadrants consisted of Viable (Annexin V-FITC^−/PI^−), early stage apoptotic (Annexin V-FITC^+/PI^−) and late-stage apoptotic/necrotic (Annexin V-FITC^+/PI^+) populations.

MSTO-211H cells [7] = assay: as above; type: cell-based, human; settings: light; for EC50: read-out: EC50 (50% reduction in viable cell populations), PDT activity
Protocol: as §4, §5

[8] = Annexin V-FITC/PI cell death analysis by flow cytometry, NCI-H28; type: cell-based, human; settings: human, NCI-H28 cells, read-out: viable cells
Protocol: as §4, §5

NCI-H28 cells [9] = assay: as above; type: cell-based, human; settings: light; for EC50: read-out: EC50 (50% reduction in viable cell populations), PDT activity
Protocol: as §4, §5

Met-5a cells = assay: Annexin V-FITC/PI cell death analysis by flow cytometry, Met-5a; type: cell-based, human; settings: for EC50: Homo sapiens, read-out: EC50 (50% reduction in viable cell populations), PDT activity
Protocol: as §4, §5

[10] = UV/vis absorbance spectroscopy in DMSO, water and 1 M HCl (stacking, aqueous solubility); type: physicochemical; settings: absorption spectra in water vs DMSO and 1 M HCl
Protocol: UV/vis absorbance spectroscopy in DMSO, water and 1 M HCl. For each of the porphyrins 5, 6, and 7, 5 mg, was dissolved in 30 µL of 1 M NaOH H this was diluted to 5 mL with distilled to give stock solutions of concentrations 0.926 mM, 0.88 mM and 0.77 mM, respectively. In a quartz 96 well plate, 20 µL was added to a well and diluted to a volume of 320 µL with either DMSO, water or 1 M HCl.

MSTO-211H cells [11] = assay: Cellular localization by high content fluorescence microscopy; type: cell-based, human; settings: 24 h incubation
Protocol: Cells were harvested in accordance with methods previously described and seeded into 24-well plates (Nunc, London, UK) at a density of 25,000 treated with porphyrin working solutions made up from the porphyrin PS stock solutions and incubated for 24 h. The cells were visualized using a Cytation 5 (Agilent Technologies, Cheadle, UK) high content microscopy platform at 20× magnification.

[12] = Homo sapiens, 24 h, 24 h time point
[13] = Homo sapiens, 48 h, 48 h time point
[14] = Homo sapiens, NCI-H28, 24 h, NCI-H28, 24 h time point
[15] = Homo sapiens, NCI-H28, 48 h, NCI-H28, 48 h time point
[16] = 20 μg/mL, time point not stated

SMILES	viability at 48 h, 5 μg/mL [1] [%]	viability at 5 µg/mL (MSTO-211H cells [2]) [%]	viability at 24 h, 5 μg/mL [5] [%]	viability at 48 h, 5 μg/mL [5] [%]	EC50 (MSTO-211H cells [7]; [12]) [µg/mL]	EC50 (MSTO-211H cells [7]; [13]) [µg/mL]	EC50 (NCI-H28 cells [9]; [14]) [µg/mL]	EC50 (NCI-H28 cells [9]; [15]) [µg/mL]	EC50 (50% reduction in viable cell populations), PDT activity (NCI-H28 cells [9]; NCI-H28, 24 h time point)	EC50 (Met-5a cells; 24 h time point, light) [µg/mL]	EC50 (Met-5a cells; 48 h time point, light) [µg/mL]	also measured
O=C(O)CCCCOc1cccc(-c2c3nc(c(-c4cccc(OCCCCC(=O)O)c4)c4ccc([nH]4)c(-c4cccc(OCCCCC(=O)O)c4)c4nc(c(-c5cccc(OCCCCC(=O)O)c5)c5ccc2[nH]5)C=C4)C=C3)c1 [C5SHU]	100	22	~28	~11	7.7 (≈ 7.13 µM)	2.8 ± 1.5 (≈ 2.59 µM)	7.8 (≈ 7.23 µM)	6 ± 1 (≈ 5.56 µM)	7.7 ± 1 µg/mL (≈ 7.13 µM)	> 20	5.1 ± 1 (≈ 4.73 µM)	viability at 48 h, 15 μg/mL ([1]; 15 μg/mL, read-out: dark toxicity (cell viability)): 30%; viability at 48 h, 20 μg/mL ([1]; 20 μg/mL, read-out: dark toxicity (cell viability)): 26%; viability at 48 h, 5 μg/mL [3]: 116%; viability at 5 µg/mL (NCI-H28 cells [4]): 16%; viability at 48 h, 15 μg/mL ([6]; 15 μg/mL): 63.6%; viability at 48 h, 20 μg/mL ([6]; 20 μg/mL): 46.1%; apoptotic cell population (MSTO-211H cells [7]; 10 μg/mL, 24 h): 49%; necrotic cell population (MSTO-211H cells [7]; 10 μg/mL, 24 h): 34%; EC50 (50% reduction in viable cell populations), PDT activity (MSTO-211H cells [7]; 24 h time point): 7.8 ± 3 µg/mL (≈ 7.23 µM); viability ([8]; NCI-H28, dark, unchanged with porphyrin dose): ~95%; apoptotic cell population (NCI-H28 cells [9]; NCI-H28, 10 μg/mL, 24 h): 16%; necrotic cell population (NCI-H28 cells [9]; NCI-H28, 10 μg/mL, 24 h): 53%; cell death (Met-5a cells; 24 h, all dose concentrations): no significant cell death; dark toxicity (Met-5a cells; 24 h, all dose concentrations): negligible dark toxicity; dark toxicity (Met-5a cells; 48 h): Negligible dark toxicity; predominant mode of cell death (Met-5a cells; 48 h, light): necrosis; stacking in aqueous solutions [10]: least evidence of stacking
O=C(O)CCCCCOc1cccc(-c2c3nc(c(-c4cccc(OCCCCCC(=O)O)c4)c4ccc([nH]4)c(-c4cccc(OCCCCCC(=O)O)c4)c4nc(c(-c5cccc(OCCCCCC(=O)O)c5)c5ccc2[nH]5)C=C4)C=C3)c1 [C6SHU]	119	38			14 (≈ 12.3 µM)	14 ± 4 (≈ 12.3 µM)	> 20	> 20		> 20	> 20	apoptotic cell population (MSTO-211H cells [7]; [16]): 23%; necrotic cell population (MSTO-211H cells [7]; [16]): 50%; viability at 20 µg/mL (MSTO-211H cells [7]; Homo sapiens, 20 μg/mL, time point not stated, read-out: viable cell population): 20%; IC50 (NCI-H28 cells [9]; Homo sapiens, NCI-H28, NCI-28 as printed, time point not stated, read-out: IC50, PDT effect): > 20 µg/mL; viability at 20 µg/mL (NCI-H28 cells [9]; Homo sapiens, NCI-H28, 20 μg/mL, time point not stated, read-out: viable cells): 59%
O=C(O)CCCCCCOc1cccc(-c2c3nc(c(-c4cccc(OCCCCCCC(=O)O)c4)c4ccc([nH]4)c(-c4cccc(OCCCCCCC(=O)O)c4)c4nc(c(-c5cccc(OCCCCCCC(=O)O)c5)c5ccc2[nH]5)C=C4)C=C3)c1 [C7SHU]			66	30	9.6 ± 3 (≈ 8.06 µM)	7.7 ± 2 (≈ 6.46 µM)	> 20	> 20	>20 ^a μg/mL	> 20	> 20	viability at 48 h, 10 μg/mL ([8]; NCI-H28, 10 μg/mL, 48 h): 75%; cellular localization (MSTO-211H cells [11]): localize in the cytosolic region

Reference: article PMC9654571, “Water-Soluble Truncated Fatty Acid–Porphyrin Conjugates Provide Photo-Sensitizer Activity for Photodynamic Therapy in Malignant Mesothelioma” (Cancers, 2022)
